Results on 88 molecules are retold here after a melting point compilation (Tetko et al.; mined from patent text by program, amines drawn as free bases though some values may be those of a salt).

In the case of `CCn1ncc2c(Cl)c3c(nc21)CCc1ccccc1C3=O`, the melting point lay in the range of 111 to 113 °C. For `COc1ccc(-n2nc(Sc3ccc(OC(F)(F)F)cc3)c(C)c(C#N)c2=O)cc1`, the melting point is 165 to 167 °C. For `Nc1c([N+](=O)[O-])cc(Br)c2c1CCN(Cc1ccc(C(F)(F)F)cc1)C2` the value was 131 to 133 °C; for `CC(=O)SCSc1cn(C)nn1`, 71 to 72 °C. Take `O=C(c1ccc(C2CCCCC2)cc1)N1Cc2ccccc2Nc2ccccc21`: the melting point is 175 to 176 °C. `CC(C)(C)CC(=O)Nc1cc(-c2ccnc3c(C(=O)c4cccs4)cnn23)ccc1F` registered a melting point of 180 to 181 °C.

Molecule `OC(CNCCCn1cnc2ccccc21)c1ccc(OCc2ccccc2)cc1` (stereo not drawn) gave a melting point of 83 to 85 °C. Turning to `CCc1cnc2c(NC(=O)c3c(Cl)cccc3Cl)cccc2c1CC(=O)OC`, the melting point lay in the range of 167 to 168 °C. Regarding `COc1c2c(c(OC)c(OC)c1OC)CCC(CCOc1ccc(-c3ccccc3)cc1)CC2`, the melting point was in the range of 115 to 120 °C. In turn, `CC1=NC2(O)c3cc(-c4ccc(C(F)(F)F)cc4)ccc3CC2S1` (stereo not drawn) gave a melting point of 213 to 217 °C. `COc1cccc(Cl)c1-c1cc2c(c3c1C(=O)NC3=O)c1cc(O)ccc1n2CCCBr` returned a melting point of 286 to 288 °C.

With `Cc1cc(C(=CC(=O)N2CCOCC2)c2ccccc2)ccc1OS(=O)(=O)N(C)C`, the melting point was found to be 108 °C. For `O=S(=O)(Nc1ccc(Cl)cc1-c1nc2ccccc2[nH]1)c1ccc(Cl)cc1` the value was 225 to 228 °C. In turn, `COC(=O)C(c1ccccc1)N1CCC(c2ccc(NC(=O)c3ccccc3-c3ccc(C(F)(F)F)cc3)cc2)CC1` (stereo not drawn) showed a melting point of 138 °C. For `O=C(O)Cc1ccc(OCc2c(Cl)cccc2C(=O)O)cc1` the value was 171 to 173 °C. On to `CCOC(=O)C1Cc2c(n(C)c3ccc(OCc4ccccc4)cc23)C1` (stereo not drawn), for which the melting point fell in the range of 90 to 95 °C. Turning to `CNC(=O)N(c1ccccc1)c1ncc(C)n1-c1ccccc1`, the melting point worked out at 147 °C. For `C=CCO/N=C(\C(=O)OC)c1csc(N)n1` the value was 133 to 134 °C. As to `CC(C)(c1ccc(Oc2cccc([N+](=O)[O-])c2)cc1)c1ccc(Oc2cccc([N+](=O)[O-])c2)cc1`, the melting point is 111 to 113 °C.

`CC(C)c1cccc(C(C)C)c1OC(=O)NP(=O)(Oc1ccccc1)Oc1ccccc1` gave a melting point of 132 to 135 °C. On to `Clc1ccc(-n2ccc(OCCOCCN3CCCCC3)n2)cc1Cl`, for which the melting point fell in the range of 126 to 128 °C. `CCOC(=O)C1=C(C)NN=C(C(=O)OC)C1c1ccc([N+](=O)[O-])cc1` (stereo not drawn) registered a melting point of 205 to 206 °C. For `C[C@H](c1ccccc1)n1c(=O)[nH]c2ncc(-c3ccc(-c4nc[nH]n4)cc3)nc21` the value was 258 to 260 °C; for `CCOP(=O)(Cc1cc(C2CCCCC2)c(O)c(C2CCCCC2)c1)OCC`, 120 °C; for `N#CSCC(I)=C(I)CSC#N`, 190 °C. Turning to `CCOC(=O)N1C=CC(c2c(-c3ccccc3)nn3ccccc23)C=N1` (stereo not drawn), the melting point lay within 173 to 174 °C. The molecule `CCOC(=O)c1cnc2c3ccccc3c(CC)cn2c1=O` had a melting point of 161 to 163 °C.

For `Cn1c(CN2C(=O)c3ccccc3C2=O)c(-c2ccc(O)cc2)c2cc(Cl)ccc2c1=O`, the melting point lay in the range of 307 to 308 °C. `COC(=O)c1cc(-c2ccccc2)sc1Nc1ccc(F)cc1[N+](=O)[O-]` had a melting point of 150 °C. For `CC(C)Cn1cnc2c(N)nc3ccc(CCO)cc3c21` the value was 214 to 216 °C; for `CC1(C)CCC(C)(C)c2cc(CO)ccc21`, 74 to 75 °C.

`CC1CN(C(=O)NC(CS)Cc2ccccc2)CC(C)O1` (single isomer, unassigned; (+)): the melting point fell in the range of 120 to 122 °C. `O=C1COc2cc3[nH]c(C(=O)N4CCC(Cc5ccccc5)CC4)cc3cc2N1` yielded a melting point of 225 to 231 °C. The molecule `CCc1n[nH]c2c(=O)[nH]c(-c3cc(S(C)(=O)=O)ccc3OCc3ccccn3)nc12` had a melting point of 283 to 286 °C.

With `CCOC(=O)c1cc([N+](=O)[O-])ccc1NC(=O)OC(C)(C)C`, the melting point lay in the range of 118 to 121 °C. `CC(C)Cn1c(C#N)c(-c2ccccc2)c2cccnc2c1=O` came in with a melting point of 221 to 222 °C. In the case of `CCCCc1nc2ncccc2n1Cc1ccc(-c2ccccc2C(=O)O)cc1`, the melting point was 170 °C. For the molecule `COC(=O)c1ccc2c(c1)CN(C(=O)OCc1ccccc1)C2`, the melting point fell in the range of 59 to 65 °C. Regarding `Cc1ccc(SCc2c(C(C)C)nc(C(C)C)c(CO)c2-c2ccc(F)cc2)cc1`, the melting point lay within 90 to 91 °C. For `CCCCOC(=O)C=Cc1ccc(C=CC(=O)OCCCC)c2nsnc12` the value was 90 to 94 °C; for `CC(=O)SCC1CCCCCCCSC[C@@H](C(=O)OCc2ccccc2)NC1=O` (stereo partly drawn), 192 to 193 °C; for `NC(=O)Cc1cn(-c2ccccc2)nc1-c1ccc(Cl)cc1`, 182 °C.

`Cc1cc(C)nc(-n2ncnc2N)n1` returned a melting point of 230 to 232 °C. The molecule `CSC(=NC(=O)c1ccccc1)Nc1ccccc1` registered a melting point of 78 to 94 °C. As for `O=C(CCl)Nc1cc(Br)cc([N+](=O)[O-])c1NC(=O)CCl`, the melting point was in the range of 172 to 173 °C. For `O=C(Nc1ccccc1C(F)(F)F)ONC1=Nc2ccc(Cl)cc2C(c2ccccc2)=NC1` the value was 190 °C; for `C=CCCCCOc1ccc(OCCCCC=C)cc1`, 29 to 30 °C.

For the molecule `Cc1cccc(NC(=O)Nc2c(-c3ccccc3)c3cc(Cl)ccc3c(=O)n2C)c1`, the melting point is greater than 300 °C. Molecule `CCCCCCCCCCCCCCCCCCOc1cc(OCCCOc2cccc(N)c2)cc(C(=O)N(CC(=O)O)CC(=O)O)c1` registered a melting point of 100 to 104 °C. In turn, `CSc1ccc(C(=O)C(=O)c2ccc(Cl)c(Cl)c2)cc1` displayed a melting point of 249 to 251 °C.

In turn, `CC(C)c1nc(CCN(C)C(=O)N[C@H](C(=O)N[C@@H](Cc2ccccc2)C[C@H](O)[C@H](Cc2ccccc2)NC(=O)OCc2cncs2)C(C)C)cs1` came in with a melting point of 62 to 63 °C. In turn, `O=C(O)C1(CC2CCCC2)CC1` yielded a melting point of 42 to 45 °C. `Cc1nc(N2CCc3ccsc3CC2)c([N+](=O)[O-])c(=O)[nH]1` registered a melting point greater than 200 °C. For `O=C(Nc1n[nH]c(=S)s1)N[C@@H](Cc1ccccc1)C(=O)N1CCN(c2ccccc2)CC1`, the melting point lay within 210 to 211 °C. Molecule `NC(=O)C1CCc2cc(C3CCCCCC3)c(Cl)cc21` (stereo not drawn) displayed a melting point of 170 to 171 °C. Regarding `O=[N+]([O-])c1ccc(OC23CC4CC(CC(C4)C2)C3)c2ccccc12`, the melting point is 126 to 128 °C. With `CCCCCCCCCCCCCCCCSCC(CNS(=O)(=O)CCCI)n1nnc(C)n1` (stereo not drawn), the melting point was in the range of 50 to 51 °C. Regarding `CCN(CC)C(=O)c1cc[nH]c1C`, the melting point was 120 to 121 °C. `Cc1cc(C=O)c2ccccc2c1O` showed a melting point of 160 to 161 °C.

Consider `CC(C)=CCOc1ccc(C(=O)C=Cc2ccccc2)c(O)c1`, for which the melting point fell in the range of 164 to 166 °C. For `O=C(O)c1cn(C2CC2)c2cc(Cl)ccc2c1=O` the value was 307 to 308 °C; for `Clc1ncccc1OCC#CI`, 164 to 165 °C. For `Cc1cc(C)c(N2CCCCC2=O)cc1NS(=O)(=O)C(F)(F)F` the value was 260 to 266 °C; for `COc1cc2c(cc1OC)CN(CCCOc1ccc(NC(=O)c3cccc4c(=O)c5ccccc5sc34)cc1)CC2`, 210 °C; for `NC(=O)[C@@H]1C[C@@H]2C[C@@H]2N1C(=O)[C@@H](NC(=O)OCc1ccccc1)C12CC3CC(CC(O)(C3)C1)C2`, 105 to 106 °C. For `CC(C)(C)c1cc(C2=Cc3cc(-c4ccccc4)ccc3C2)cc(C(C)(C)C)c1` the value was 122 to 123 °C; for `O=C(CCl)Nc1ccccn1`, 114 to 117 °C; for `CNc1ccccc1C(C)=O`, 34 to 35 °C. `CCOC(=O)C(=O)CCc1ccccc1` returned a melting point of 126 to 127 °C. For `Cc1c(Cl)n(C)n(C)c1=O` the value was 37 to 38 °C; for `Nc1c(F)c(N2CCCCCC2)c(F)c2c1c(=O)c(C(=O)O)cn2C1CC1`, 234 to 236 °C; for `CCOCc1nc2c(N)nc(C)c(C)c2n1CCNC(=O)NC1CCCCC1`, 188 to 190 °C. `CCOC(=O)c1sc(I)nc1-c1ccccc1`: the melting point lay in the range of 104 to 106 °C. For `COc1ccc(-c2nc(C)c(C)nc2-c2ccc(OC)cc2)cc1` the value was 106 to 108 °C. For `NC(=O)c1ccc(Cl)c([N+](=O)[O-])c1N1CC1`, the melting point amounted to 216 °C. For `O=C(CCCCCBr)Nc1ccc(C(F)(F)F)cc1` the value was 96 to 98 °C; for `CS(=O)(=O)Nc1cccc2c(-c3ccccc3)c([N+](=O)[O-])oc12`, 169 to 172 °C. In the case of `Cc1ccc(NC(=O)c2ccc(/C=C/C(=O)NO)s2)cc1Nc1nc(-c2cccnc2)cs1`, the melting point came out at 242 °C. For the molecule `CCOc1ccccc1C(=O)C=Cc1ccc2ccccc2c1`, the melting point is 96 to 97 °C. For `CS(=O)c1ccc(-n2cnc(-c3ccc(F)cc3)c2-c2ccncc2)cc1` (stereo not drawn) the value was 202 to 203 °C. In the case of `N#Cc1cc(Cn2nnc(C(N)=O)c2N)ccc1Cl`, the melting point is 172 to 175 °C. `CC(C)(C)c1cccc(S(=O)(=O)n2c(Cc3ccc(C(=O)O)s3)cc3cc(C(F)(F)F)ccc32)c1` gave a melting point of 110 °C. For the molecule `COc1cc2ncc(C#N)c(Nc3ccc(Cl)cc3F)c2cc1OC`, the melting point lay within 139 to 141 °C.

`COc1cc2c(cc1CCCCN1CCCC1)[nH]c1cc(-c3ccccc3Cl)c3c(c12)C(=O)NC3=O` returned a melting point of 173 to 178 °C. In turn, `CC(C)c1ccc(-c2ccc(/C=C/C(=O)Nc3ccc(CN(C)C4CCOCC4)cc3)s2)cc1` returned a melting point of 187 to 189 °C. In the case of `COc1cc2ncc(C#N)c(Nc3cccc(O)c3C)c2cc1OC`, the melting point was 255 to 257 °C. In turn, `Cc1ccc(C(=O)CC(=O)OC(C)(C)C)c(O)c1` displayed a melting point of 88 to 90 °C. For `CC(C)(C)OC(=O)N1CC2CC(CN(CC(O)COc3ccc(C(C)(C)C)cc3)C2)C1` (stereo not drawn) the value was 75 to 77 °C.
